Measured values as given in PubChem BioAssay AID2432 (Johns Hopkins Ion Channel Center, 2010).

Biological target: Potassium voltage-gated channel subfamily KQT member 2 (Rattus norvegicus) (UniProt O88943)
Test: molecular determinants of KCNQ2 potentiation – cell-based, rat KCNQ2, manual patch clamp, mode of action, mechanism study for KCNQ2 potentiator project, late-stage follow-up (AID 2432)
Conditions: HEK293-KCNQ2 manual patch clamp, peak current ratio, at 10 µM; for V1/2: stronger effect = lower value

Potassium voltage-gated channel subfamily KQT member 2 (Rattus norvegicus), sequence (O88943 whole entry, looked up): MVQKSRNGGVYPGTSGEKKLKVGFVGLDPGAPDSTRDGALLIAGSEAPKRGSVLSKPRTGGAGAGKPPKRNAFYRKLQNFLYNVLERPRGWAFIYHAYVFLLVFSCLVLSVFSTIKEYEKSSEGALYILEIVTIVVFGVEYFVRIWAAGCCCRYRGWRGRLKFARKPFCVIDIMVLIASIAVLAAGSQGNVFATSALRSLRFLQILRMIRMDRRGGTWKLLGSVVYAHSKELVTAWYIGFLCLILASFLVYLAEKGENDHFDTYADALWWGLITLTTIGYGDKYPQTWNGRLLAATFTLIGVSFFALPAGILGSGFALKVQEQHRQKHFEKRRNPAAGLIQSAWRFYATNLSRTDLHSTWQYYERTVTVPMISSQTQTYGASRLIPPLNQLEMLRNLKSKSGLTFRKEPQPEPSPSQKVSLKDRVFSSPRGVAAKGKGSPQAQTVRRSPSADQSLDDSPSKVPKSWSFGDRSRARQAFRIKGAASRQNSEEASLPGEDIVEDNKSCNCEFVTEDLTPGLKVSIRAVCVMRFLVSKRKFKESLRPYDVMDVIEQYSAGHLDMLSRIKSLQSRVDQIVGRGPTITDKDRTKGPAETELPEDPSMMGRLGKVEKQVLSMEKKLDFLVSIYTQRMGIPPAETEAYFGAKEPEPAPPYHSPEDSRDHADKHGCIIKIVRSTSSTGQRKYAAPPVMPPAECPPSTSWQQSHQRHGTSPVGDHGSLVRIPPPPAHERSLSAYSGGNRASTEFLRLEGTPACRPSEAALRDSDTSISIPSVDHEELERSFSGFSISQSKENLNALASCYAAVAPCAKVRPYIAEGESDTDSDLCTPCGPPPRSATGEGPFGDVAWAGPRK

## O=C(Nc1ccc(Cl)nc1)c1ccc(F)cc1
Higher = more active
  current ratio I/I0: 1.9
Measured here: L249A mutant V1/2
  V1/2: -41.8 mV
Measured here: L249A mutant current ratio, stronger effect = higher value
  current ratio I/I0: 1.8
Measured here: L249A/L275A double mutant V1/2
  V1/2: -9.1 mV
Measured here: L249A/L275A double mutant current ratio, stronger effect = higher value
  current ratio I/I0: 2.3
Measured here: L275A mutant V1/2
  V1/2: -28.3 mV
Measured here: L275A mutant current ratio, stronger effect = higher value
  current ratio I/I0: 1.8
Measured here: W236L mutant V1/2
  V1/2: -38.6 mV
Measured here: W236L mutant current ratio, stronger effect = higher value
  current ratio I/I0: 1.7
Measured here: WT deactivation time constant, stronger effect = higher value
  deactivation tau: 172 ms
Measured here: WT half-activation voltage with compound
  V1/2: -55.3 mV
